Experimental data taken from EP1266900A1, “Carbamates of rapamycin” (Wyeth, priority 1992, dated 1994).
pIC50: −log10 of the molar value. Structures can show the parent of a compound that is named as a salt. Where two headings read alike, the source gives them in different places.

How the values were obtained:
pinch skin graft = pinch skin graft survival time, in vivo; parameters: species or system male C3H(H-2K) recipients; settings: dose of 4 mg/kg, intraperitoneally or orally, untreated grafts usually rejected within 6-7 days
Method: (§1) Immunosuppressive activity for representative compounds of this invention was evaluated in an in vitro standard pharmacological test procedure to measure lymphocyte proliferation (LAF) and in an in vivo standard pharmacological test procedure which evaluated the survival time of a pinch skin graft.
Representative compounds of this invention were also evaluated in an in vivo test procedure designed to determine the survival time of pinch skin graft from male BAB/c donors transplanted to male C3H(H-2K) recipients. The method is adapted from Billingham R.E. and Medawar P.B., J. Exp. Biol. 28:385-402, (1951). Briefly, a pinch skin graft from the donor was grafted on the dorsum of the recipient as a allograft, and an isograft was used as control in the same region. The recipients were treated with either varying concentrations of test compounds intraperitoneally or orally. Rapamycin was used as a test control. Untreated recipients serve as rejection control. The graft was monitored daily and observations were recorded until the graft became dry and formed a blackened scab. This was considered as the rejection day. The mean graft survival time (number of days ± S.D.) of the drug treatment group was compared with the control group. […] Results are expressed as the mean survival time in days. Untreated (control) pinch skin grafts are usually rejected within 6-7 days. The results shown in Table 1 are based on a dose of 4 mg/kg of test compound. A survival time of 12.0 ± 1.7 days was obtained for rapamycin at 4 mg/kg.

[1] = system: cells from the thymus of normal BALB/c mice; test: comitogen-induced thymocyte proliferation procedure (LAF); format: cell-based; settings: for pIC50: read-out: LAF IC50; for LAF (ratio): ratio compared with rapamycin, greater than 1 = inhibited thymocyte proliferation to a greater extent than rapamycin
Method: as §1
The comitogen-induced thymocyte proliferation procedure (LAF) was used as an in vitro measure of the immunosuppressive effects of representative compounds. Briefly, cells from the thymus of normal BALB/c mice are cultured for 72 hours with PHA and IL-1 and pulsed with tritiated thymidine during the last six hours. Cells are cultured with and without various concentrations of rapamycin, cyclosporin A, or test compound. Cells are harvested and incorporated radioactivity is determined. Inhibition of lymphoproliferation is assessed as percent change in counts per minute from non-drug treated controls. For each compound evaluated, rapamycin was also evaluated for the purpose of comparison. An IC50 was obtained for each test compound as well as for rapamycin. […] A positive ratio indicates immunosuppressive activity. […] Calculation of the ratio is shown below. (()^3 H-control thymus cells -)/(()^3 H-control thymus cells -)(()^3 H-rapamycin-treated thymus cells)/(()^3 H-test compound-treated cells) [formula]

[2] = thymocytes cultured for 72 hours with PHA and IL-1, tritiated thymidine incorporation

Molecule	Skin Graft (days ± SD), mean survival time (pinch skin graft; hydrochloride salt, 4 mg/kg) [days]	pIC50 ([1]; thymocytes cultured for 72 hours with PHA and IL-1, tritiated thymidine incorporation, hydrochloride salt)	Skin Graft (days ± SD), mean survival time (pinch skin graft) [days]	pIC50 ([1]; Mus musculus, Thymocyte, 72 h, thymocytes cultured for 72 hours with PHA and IL-1, tritiated thymidine incorporation)	LAF (ratio) [1]	pIC50 ([1]; Mus musculus, Thymocyte, 72 h)	pIC50 [1, 2]
CO[C@H]1C[C@@H]2CC[C@@H](C)[C@@](O)(O2)C(=O)C(=O)N2CCCC[C@H]2C(=O)O[C@H]([C@H](C)C[C@@H]2CC[C@@H](OC(=O)NCc3cccnc3)[C@H](OC)C2)CC(=O)[C@H](C)/C=C(\C)[C@@H](O)[C@@H](OC)C(=O)[C@H](C)C[C@H](C)/C=C/C=C/C=C/1C [Example 13, Rapamycin 42-ester with 3-pyridinylmethyl carbamic acid hydrochloride salt]	9.50 ± 0.6	9.05					
CO[C@H]1C[C@@H]2CC[C@@H](C)[C@@](O)(O2)C(=O)C(=O)N2CCCC[C@H]2C(=O)O[C@H]([C@H](C)C[C@@H]2CC[C@@H](OC(=O)NCc3ccncc3)[C@H](OC)C2)CC(=O)[C@H](C)/C=C(\C)[C@@H](O)[C@@H](OC)C(=O)[C@H](C)C[C@H](C)/C=C/C=C/C=C/1C [Example 14, Rapamycin 42-ester with 4-pyridinylmethyl carbamic acid]			9.17 ± 1.7	9.30	3.8		
CO[C@H]1C[C@@H]2CC[C@@H](C)[C@@](O)(O2)C(=O)C(=O)N2CCCC[C@H]2C(=O)O[C@H]([C@H](C)C[C@@H]2CC[C@@H](O)[C@H](OC)C2)CC(=O)[C@H](C)/C=C(\C)[C@@H](O)[C@@H](OC)C(=O)[C@H](C)C[C@H](C)/C=C/C=C/C=C/1C [rapamycin, Rapamycin]			12.0 ± 1.7			8.00 to 8.66	
Rapamycin 42-ester with 2-(2-aminoethoxy)ethyl carbamic acid [Example 21]			10.4 ± 0.5		0.6		8.22
Rapamycin 42-ester with 2-pyridinylmethyl carbamic acid hydrochloride salt [Example 11]			11.40 ± 0.9		5.0		9.15
